Data: US20210196720A1 (UROVANT SCIENCES GMBH, priority 2018, published 2021)
One block for each compound: values may come before it.

Assays:
[1] = clinical; conditions: human, in vivo
[2] = Mass balance study with [14C]vibegron, healthy subjects; conditions: human plasma, 2 and 4 hr
[3] = Phase 2b OAB study, adverse events
Source text: A placebo group was included in the main study, and a group that received tolterodine monotherapy was included in the main study and in the extension.

[4] = Phase 2b OAB study, cardiovascular safety (HR, SBP, DBP, orthostatic AEs); type: in vivo, human; conditions: 4 mg
Source text: None led to discontinuation. The overall incidence of orthostatic symptoms was low.
Small differences in the percent of subjects exceeding categorical heart rate and blood pressure thresholds for vibegron were similar to those in the tolterodine arm.

[5] = Drug interaction: effect of vibegron on conmed PK; conditions: human, in vivo, 4 mg
[6] = cited from earlier work

AUC ([1]; 0.03 mg): 0.81 ng·h/mL
Cmax ([1]; 0.03 mg): 0.0719 ng/mL
Compound: C#C[C@]1(O)CC[C@H]2[C@@H]3CCc4cc(O)ccc4[C@H]3CC[C@@]21C [EE, ethinyl estradiol]

AUC ([1]; 0.15 mg): 31 ng·h/mL
Cmax ([1]; 0.15 mg): 2.07 ng/mL
Compound: C#C[C@]1(O)CC[C@H]2[C@@H]3CCC4=CC(=O)CC[C@@H]4[C@H]3CC[C@@]21CC [LNG, levonorgestrel]

share of total circulating drug-related material [2]: 12-14%
Compound: O=C(O)C1OC(OC(c2ccccc2)C2CCC(Cc3ccc(NC(=O)C4CCc5nccc(=O)n54)cc3)N2)C(O)C(O)C1O (stereo not shown) [M7]

More lines, now with the values behind:

Compound: C[C@H]1O[C@@H](O[C@H]2[C@@H](O)C[C@H](O[C@H]3[C@@H](O)C[C@H](O[C@H]4CC[C@@]5(C)[C@H](CC[C@@H]6[C@@H]5C[C@@H](O)[C@]5(C)[C@@H](C7=CC(=O)OC7)CC[C@]65O)C4)O[C@@H]3C)O[C@@H]2C)C[C@H](O)[C@@H]1O [Digoxin]
AUC ([1]; 0.25 mg): 16.6 ng·h/mL

Compound: Cc1ccc(O)c([C@H](CCN(C(C)C)C(C)C)c2ccccc2)c1 [Tolterodine ER, reference compound]
Discontinuation due to drug-related AE, subjects ([3]; first 12 weeks, dose group by column): 0 n
frequency of injuries ([3]; human, in vivo): 2.1%
DBP change from baseline, mean (95% CI) max, week 1 to 8 [4]: 5.19 (4.26, 6.13) mm Hg
DBP change from baseline, mean (95% CI), week 1 [4]: −0.12 (−1.10, 0.86) mm Hg
HR change from baseline, mean (95% CI) maximum, week 1 to 8 [4]: 5.66 (4.69, 6.63) bpm
HR change from baseline, mean (95% CI), week 1 [4]: 0.68 (−0.31, 1.67) bpm
SBP change from baseline, mean (95% CI) maximum, week 1 to 8 [4]: 7.29 (6.01, 8.57) mm Hg
SBP change from baseline, mean (95% CI), week 1 [4]: 0.04 (−1.36, 1.43) mm Hg
Cmax [5]: 2.28 ng/mL

Compound: O=C(O)c1cccc(-c2cccc(NCCNC[C@H](O)c3cccc(Cl)c3)c2)c1 [solabegron]
number of pain- and discomfort-free days vs placebo ([6]; Phase IIa, IBS, females): statistically significant increase
clinical benefit ([6]; Phase IIa, IBS, male subjects): no clinical benefit
bowel function and plasma somatostatin concentration ([6]; healthy volunteers): no effect
gastrointestinal or colonic transit ([6]; healthy volunteers): did not significantly alter
